The source of these data is US9872847B2 (priority 2013, dated 2018).

The subject of series [1] is MES (electrical stimulus) seizure. As to the kind of experiment: animal or person. The following applies: for Protection % (percentage of activity compared to the vehicle only): mouse, in vivo. Format: in vivo, male ICR mice.
Another series concerns Harmaline-induced tremor. As to the kind of experiment: animal or person. Format: in vivo, male Sprague-Dawley rats. The following applies: po; for inhibition in vivo at 130 mg/kg / inhibition in vivo at 100 mg/kg / ED50: Rattus norvegicus; for inhibition in vivo at 130 mg/kg / inhibition in vivo at 100 mg/kg: 0.5 h, read-out: Protection % (percentage of activity compared to the vehicle only); for On-set time Mean ± S.E.M. / On-set time Median / Tremor score Mean ± S.E.M. / Tremor score Median: rat, in vivo.

Series [2] deals with motor abilities on the Rotarod. As to the kind of experiment: Neurotoxicity (Rotarod). Format: in vivo. The note with it: protective index, mice. The method, then:
The measurement of neurotoxicity of the test compounds was conducted by the method of Dunham and Miya [Dunham, N. W. and Miya, T. S. 1957. A note on a simple apparatus for detecting neurological deficit in rats and mice. J. Am. Pharm. Assoc. (Baltimore) 46: 208˜209]. In the method, motor abilities of the test animals can be determined by observing whether the test animals can walk without falling from a rotator, thereby determining the value of neurotoxicity of each compound. […] They were pre-trained on the rotarod (Rotarod; Columbus instrument, rota-max, USA) at 6 rpm for 5 min 24 hr prior to the test. The peak time was determined by administration test material's random dose for 0.5, 1, 2, 4 hour. […] The ratio of TD50 to ED50 (TD50/ED50) is called as a protective index, and useful as a parameter for comparison of pharmaceutical efficacy and neurotoxicity.

In general, ED50 refers to the dose that gives a 50% effect, or the effect in half of the subjects. Low readings indicate an effect at a small dose, high ones a need for a large dose.

For `C[C@H](OC(=O)NC1CC1)[C@@H](O)c1ccccc1Cl` [Compound 25, 1-(2-chlorophenyl)-(R)-1-hydroxypropyl-(R)-2-N-cyclopropylcarbamate], the responders at 200 mg/kg in series [1] (Mus musculus, po, read-out: Protection % (percentage of activity compared to the vehicle only)) stood at 25%.
For `CC[C@H](OC(N)=O)[C@@H](O)c1ccc(Cl)cc1Cl` [Compound 39, 1-(2,4-dichlorophenyl)-(S)-1-hydroxybutyl-(S)-2-carbamate], the inhibition in vivo at 130 mg/kg in the series on Harmaline-induced tremor turned out to be 66.7%.
For the compound `CC[C@H](OC(N)=O)[C@@H](O)c1ccccc1Cl` [Compound 6, 1-(2-chlorophenyl)-(S)-1-hydroxybutyl-(S)-2-carbamate], the inhibition in vivo at 130 mg/kg in the series on Harmaline-induced tremor was determined as 75%.
Consider `CCCNC(=O)O[C@H](C)[C@H](O)c1ccccc1Cl` (racemic) [Compound 30, 1-(2-chlorophenyl)-1-hydroxypropyl-2-propylcarbamate], for which the “Protection % (percentage of activity compared to the vehicle only)” value in series [1] is recorded as 200 ^a(25%).
As to `C[C@H](OC(N)=O)[C@@H](O)c1cccc(Cl)c1Cl` [Compound 38, 1-(2,3-dichlorophenyl)-(S)-1-hydroxypropyl-(S)-2-carbamate], in the series on Harmaline-induced tremor, the inhibition in vivo at 100 mg/kg came out at 55%.
Consider `C[C@@H](OC(N)=O)[C@H](O)c1c(Cl)cccc1Cl` [Compound 46, 1-(2,6-dichlorophenyl)-(R)-1-hydroxypropyl-(R)-2-carbamate], for which the inhibition in vivo at 100 mg/kg with Harmaline-induced tremor amounted to 58.3%.
With `C[C@@H](OC(N)=O)[C@H](O)c1ccccc1Cl` [Compound 2, 1-(2-chlorophenyl)-(R)-1-hydroxypropyl-(R)-2-carbamate], the “PI(TD50/ED50 in MES)” value in series [2] is 7.3. The inhibition in vivo at 130 mg/kg in the series with Harmaline-induced tremor is 66.7%.
Regarding `C[C@H](OC(N)=O)[C@@H](O)c1ccccc1Cl` [Compound 1, 1-(2-chlorophenyl)-(S)-1-hydroxypropyl-(S)-2-carbamate], the ED50 in the series on Harmaline-induced tremor came out at 12.9 mg/kg. For the same compound, in the series with Harmaline-induced tremor (5 mg/kg), the “On-set time Mean ± S.E.M.” value stood at 243 ± 7 s, the “On-set time Median” value turned out to be 250 s, the “Tremor score Mean ± S.E.M.” value is recorded as 4.8 ± 0.5 and the “Tremor score Median” value turned out to be 5.0. Moreover, in the series with Harmaline-induced tremor (10 mg/kg), the “On-set time Mean ± S.E.M.” value was determined as 289 ± 19 s, the “On-set time Median” value was 265 s, the “Tremor score Mean ± S.E.M.” value was determined as 3.6 ± 0.6 and the “Tremor score Median” value is recorded as 2.5. For the same compound, in the series with Harmaline-induced tremor (20 mg/kg), the “On-set time Mean ± S.E.M.” value was determined as 367 ± 21 s, the “On-set time Median” value worked out at 375 s, the “Tremor score Mean ± S.E.M.” value is listed as 1.8 ± 0.1 and the “Tremor score Median” value came to 1.8.
As to `C[C@H](OC(N)=O)[C@@H](O)c1ccc(Cl)cc1Cl` [Compound 36, 1-(2,4-dichlorophenyl)-(S)-1-hydroxypropyl-(S)-2-carbamate], in the series with Harmaline-induced tremor, the inhibition in vivo at 130 mg/kg was 83.3%.
With `C[C@@H](OC(N)=O)[C@@H](O)c1ccccc1Cl` [Compound 4, 1-(2-chlorophenyl)-(S)-1-hydroxypropyl-(R)-2-carbamate], in the series with Harmaline-induced tremor, the inhibition in vivo at 100 mg/kg turned out to be 66.7%.
Take `CC(C)[C@H](OC(N)=O)[C@@H](O)c1c(Cl)cccc1Cl` [Compound 42, 1-(2,6-dichlorophenyl)-(S)-1-hydroxy-3-methyl-butyl-(S)-2-carbamate]: the inhibition in vivo at 100 mg/kg in the series on Harmaline-induced tremor is 71.7%.
Compound `C[C@H](OC(N)=O)[C@@H](O)c1ccccc1I` [Compound 65, 1-(2-iodophenyl)-(S)-1-hydroxypropyl-(S)-2-carbamate] displayed an ED50 in the series on Harmaline-induced tremor of 19.2 mg/kg.
For `CC[C@H](OC(N)=O)[C@@H](O)c1ccccc1I` [Compound 67, 1-(2-iodophenyl)-(S)-1-hydroxybutyl-(S)-2-carbamate], the inhibition in vivo at 100 mg/kg in the series with Harmaline-induced tremor was determined as 83.3%.
Turning to `C[C@H](OC(N)=O)[C@@H](O)c1c(Cl)cccc1Cl` [Compound 37, 1-(2,6-dichlorophenyl)-(S)-1-hydroxypropyl-(S)-2-carbamate], the “PI(TD50/ED50 in MES)” value in series [2] was determined as 5.1. In addition, the inhibition in vivo at 130 mg/kg in the series with Harmaline-induced tremor came to 91.7%.
Regarding `CC(OC(N)=O)C(O)c1ccccc1Cl` (racemic) [Compound 3, 1-(2-chlorophenyl)-1-hydroxypropyl-2-carbamate], in series [2], the “PI(TD50/ED50 in MES)” value is recorded as 12.0. Also, the inhibition in vivo at 130 mg/kg in the series with Harmaline-induced tremor was determined as 75%.
Regarding `CC(C)[C@H](OC(N)=O)[C@@H](O)c1ccccc1Cl` [Compound 9, 1-(2-chlorophenyl)-(S)-1-hydroxy-3-methyl-butyl-(S)-2-carbamate], the inhibition in vivo at 130 mg/kg with Harmaline-induced tremor was determined as 58.3%.
As for `C[C@H](OC(N)=O)[C@H](O)c1ccccc1Cl` [Compound 5, 1-(2-chlorophenyl)-(R)-1-hydroxypropyl-(S)-2-carbamate], the “PI(TD50/ED50 in MES)” value in series [2] amounted to 3.3.
As to `C[C@H](OC(N)=O)[C@@H](O)c1ccccc1F` [Compound 63, 1-(2-fluorophenyl)-(S)-1-hydroxypropyl-(S)-2-carbamate], the inhibition in vivo at 100 mg/kg in the series with Harmaline-induced tremor came to 83.3%.
`CCCNC(=O)O[C@@H](C)[C@@H](O)c1ccccc1Cl` [Compound 16, 1-(2-chlorophenyl)-(S)-1-hydroxypropyl-(S)-2-N-propylcarbamate]: the “Protection % (percentage of activity compared to the vehicle only)” value in series [1] is 200 ^a(25%).
